The subject of this assay is MEF A1-2A-BIM cells, caspase 3/7 luminescence, 3 h. Briefly: inducers of caspase signal in A1-dependent MEFs – cell-based, luminescence, retest, A1 inhibitor project, dose response (AID 2765).

Activity calls are given as the source filed them.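 Rule for the calls: active = half-maximal concentration for the rise in caspase light signal at or below ten times the top tested dose; inconclusive = flat fit between 30% and 70% activity, or unreliable curve fit; inactive = the rest.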 Bounds are passed on as bounds.

For `c1ccc2c(CNc3ccc(CNc4ncn[nH]4)cc3)cccc2c1`, the EC50 (usually the concentration needed to bring the measured effect to its halfway point) is > 35 µM (inactive).
For the compound `COc1cc(NC(=O)c2nn(C)c3c2CS(=O)(=O)c2ccccc2-3)cc(OC)c1`, the EC50 was > 35 µM (inactive).
Regarding `COc1ccc(C(=O)N/C(=C/c2cccs2)C(=O)NN)cc1OC`, the EC50 was > 35 µM (inactive).
As to `CCOc1ccc(NC(=O)CSc2nnc(Cc3cccn3C)n2-c2ccc(F)cc2)cc1`, the EC50 was > 35 µM (inactive).
Regarding `COc1cccc(C(=O)C(C#N)=C(SC)SC)c1`, the EC50 was > 35 µM (inactive).
In the case of `CCCOC(=O)Nc1ccc([As](=O)(O)O)cc1NC(=O)OCCC`, the EC50 is > 35 µM (inactive).
In the case of `CCS(=O)(=O)c1ncc(Cl)c(C(=O)Nc2ccccc2OC)n1`, the EC50 was > 35 µM (inactive).
Regarding `CSC(SC)=C(C#N)C(=O)c1ccccc1`, the EC50 was > 35 µM (inactive).
Take `COc1ccc(N/C(=N/c2nc(C)cc(C)n2)NC(=O)Nc2ccc(Cl)c(Cl)c2)c(OC)c1`: the EC50 was > 35 µM (inactive).
Consider `Cc1cc(-c2onc(C)c2C(=O)Nc2ccc(C(F)(F)F)cc2)no1`, for which the EC50 is > 35 µM (inactive).
For the compound `O=C1/C(=C\c2c(NCCOCCO)nc3ccccn3c2=O)SC(=S)N1Cc1ccco1`, the EC50 was > 35 µM (inactive).
For `COc1ccc2[nH]c(=O)c(CN(CC3CCCO3)C(=O)Nc3ccccc3)cc2c1` (stereo unspecified), the EC50 was > 35 µM (inactive).
As for `CSc1nc(N)c(N=Nc2ccc([As](=O)(O)O)cc2)c(=O)[nH]1`, the EC50 was > 35 µM (inactive).
Next, `O=C(NCc1ccccc1Br)c1cccc2c1C(=O)c1ccc(-c3ccc(OC(F)(F)F)cc3)cc1S2(=O)=O`: > 35 µM (inactive).
In the case of `O=C(N/N=C/c1ccccc1O)C1CC(=O)N(c2ccc(F)cc2)C1` (stereo unspecified), the EC50 was > 35 µM (inactive).
For the compound `CC(C)CC(=O)Nc1ccc2c(c1)OCO2`, the EC50 was > 35 µM (inactive).
For `CC1=C(C(N)=O)C(c2ccc3c(c2)OCO3)n2nc(-c3cccc(C)c3)nc2N1` (stereo unspecified), the EC50 is > 35 µM (inactive).
Consider `CC(C)c1nnc(NC(=O)COC(=O)/C=C/c2ccc([N+](=O)[O-])cc2)s1`, for which the EC50 was > 35 µM (inactive).
Next, `CCOC(=O)CSC1=N/C(=C/c2ccc(-n3cncn3)cc2)C(=O)N1C(C)=O`: 25.6 µM; `CCOC(=O)/C(=C\c1cccnc1)C(=O)c1cc(C(C)=O)c(Nc2ccccc2)s1`: > 35 µM (inactive); `O=C(O)c1cc(-c2ccc(Cl)cc2)n(-c2cccc(Cl)c2)n1`: > 35 µM (inactive).
For `CC(=O)n1nc2nc(C)cc(C)c2c1N`, the EC50 is > 35 µM (inactive).
Consider `Cc1ccc(/C=C/C(=O)Nc2sc(C)c(C)c2C(=O)OC(C)C)o1`, for which the EC50 was > 35 µM (inactive).
To `O=C1CC(C(=O)Nc2ccccc2)C2(CCCCC2)O1` (stereo unspecified) belongs > 35 µM (inactive); to `O=C(O)c1cn(-c2ccccc2)c(=O)c2ccccc12`, > 35 µM (inactive); to `COc1ccccc1C(=O)Nc1ccnn1C1CCN(Cc2cn(C)c3ccccc23)CC1`, > 35 µM (inactive).
Take `CCOc1ccc(Nc2cc(C)nc3nc(C)nn23)cc1`: the EC50 was > 35 µM (inactive).
In the case of `CONC(=O)c1cc(OCC(F)(F)F)ccc1OCC(F)(F)F`, the EC50 is > 35 µM (inactive).
Turning to `O=[N+]([O-])c1ccc(CP(=O)(c2ccccc2)c2ccccc2)cc1`, the EC50 is > 35 µM (inactive).
Take `Cc1ccc(C(=O)NCC(=O)OC(C)C(=O)Nc2ccc(N(C)C)cc2)s1` (stereo unspecified): the EC50 is > 35 µM (inactive).
For `C=C1C(=O)O[C@@H]2C[C@@H](C)[C@@H]3C=CC(=O)[C@@]3(C)[C@@H](OC(C)=O)[C@H]12`, the EC50 was > 35 µM (inactive).
`CCS(=O)(=O)Nc1ccc(Cc2ccncc2)cc1`: the EC50 is > 35 µM (inactive).
As for `O=C(Oc1cccc(/C=N/Nc2nc(Nc3ccccc3)nc(N3CCOCC3)n2)c1)c1ccco1`, the EC50 was > 35 µM (inactive).
In the case of `O=C(c1ccco1)N1CCN(C(=O)c2cc(-c3ccccn3)nc3ccc(Cl)cc23)CC1`, the EC50 is > 35 µM (inactive).
With `O=C(Nc1cccc([N+](=O)[O-])c1)Nc1ccc2c(c1)CCC2`, the EC50 is > 35 µM (inactive).
For the compound `CCn1c(CNc2ccc(F)cc2)nnc1SCC(=O)Nc1ccccc1OC`, the EC50 is > 35 µM (inactive).
As to `CCS(=O)(=O)c1ncc(Cl)c(C(=O)Nc2ccc(S(=O)(=O)N3CCCC(C)C3)cc2)n1` (stereo unspecified), the EC50 is > 35 µM (inactive).
With `Nc1c(C(=O)Nc2ccc(S(=O)(=O)N3CCCC3)cc2)sc2nc3ccc(OC(F)(F)F)cc3cc12`, the EC50 is 8.62 µM.
As for `COc1cc(OC)cc(C(=O)Nc2ccc(S(=O)(=O)N3CCOCC3)cc2)c1`, the EC50 was > 35 µM (inactive).
Take `O=C1Nc2ncccc2OC1CCO` (stereo unspecified): the EC50 is > 35 µM (inactive).
As for `CC(=O)Nc1ccc(NC(=O)c2cc(C)nn2-c2ccccc2)cc1`, the EC50 is > 35 µM (inactive).
With `CCN(CC)C(=O)CCCc1c[nH]c2ccccc12`, the EC50 was > 35 µM (inactive).
Next, `O=C(NCc1ccc2c(c1)OCO2)C1CCN(c2ncccn2)CC1`: > 35 µM (inactive); `CCOc1cc2[nH]c(=S)n(CCCOC)c(=O)c2cc1OCC`: > 35 µM (inactive); `COc1ccc(OC)c(C2C(C(C)=O)=C(O)C(=O)N2Cc2cccnc2)c1` (stereo unspecified): > 35 µM (inactive).
To `CC1CCN(CCCNC(=O)c2cn(C)c3ccc(S(=O)(=O)N4CCCC4)cc3c2=O)CC1` belongs > 35 µM (inactive); to `Cc1cc(C)cc(N=Cc2c(O)c3ccccc3oc2=O)c1`, > 35 µM (inactive); to `Oc1cc2c(cc1CN1CCN(c3ncccn3)CC1)OCO2`, > 35 µM (inactive).
For `CC(C)(C)OC(=O)NCCc1nnc(S(=O)(=O)Cc2ccc(Cl)cc2Cl)o1`, the EC50 was > 35 µM (inactive).
Take `Clc1nc(NCc2ccco2)nc(N2CCCCC2)n1`: the EC50 was > 35 µM (inactive).
On to `CS(=O)(=O)c1ncc(Cl)c(C(=O)Nc2ccc(OC(F)F)cc2)n1`, for which the EC50 was > 35 µM (inactive).
Consider `CCc1ccc(CN/C=C/C(=O)c2ccc(Br)cc2)cc1`, for which the EC50 is > 35 µM (inactive).
For the compound `CCOc1cc(/C=C\[N+](=O)[O-])ccc1OCC(=O)Nc1ccccc1C`, the concentration for a half-maximal effect (EC50) is 3.67 µM.
On to `COc1ccc(-c2ccc3c(c2)S(=O)(=O)c2cccc(C(=O)NCc4cccc(OC(F)(F)F)c4)c2C3=O)cc1OC`, for which the half-maximal effective concentration (EC50) was 20.4 µM.
For `Cc1cc(C)cc(NC(=O)CCN2CCCC2)c1`, the EC50 was > 35 µM (inactive).
For the compound `O=C(CSc1ccc(F)cc1)Nc1ccc(C2SCCS2)cc1`, the EC50 is > 35 µM (inactive).
As for `CCN(C(=O)c1ccc2c(=O)n3c(nc2c1)CCCCC3)c1ccccc1C`, the EC50 is > 35 µM (inactive).
Next, `COc1ccc(NC(=O)C(=O)N/N=C\c2ccc(CNC(=O)C(=O)Nc3ccc(C)c(C)c3)o2)c(OC)c1`: 14.3 µM.
Consider `Cc1ccc(Cl)cc1NC(=O)CC1NC2CCCCC2NC1=O` (stereo unspecified), for which the EC50 is > 35 µM (inactive).
To `Cc1cc(C(=O)CCl)c(C)n1CCc1ccc(Cl)cc1` belongs > 35 µM (inactive); to `COc1ccc(C(=O)COC(=O)Cn2[nH]c(=O)c3ccccc3c2=O)c(OC)c1`, > 35 µM (inactive); to `O=C(O)c1ccc2c(c1)C(=O)N(c1ccc(Cl)cn1)C2=O`, > 35 µM (inactive).
To `CC(=O)OC[C@]12CC[C@H]3[C@@](C)(CC[C@H]4C(C)(C)CCC[C@]34C)[C@@H]1C[C@H](C1=CC(=O)O[C@H]1OC(C)=O)O2` belongs 3.27 µM.
As to `O=C(COc1ccc(/C=N/NC(=O)c2cc3ccccc3o2)cc1Cl)Nc1ccccc1`, the concentration for a half-maximal effect (EC50) was 6.55 µM.
As for `O=C(CCNc1n[nH]c(=O)[nH]c1=O)N/N=C/c1ccc(C(F)(F)F)cc1`, the EC50 was > 35 µM (inactive).
In the case of `CCc1nnc(NC(=O)c2ccc(NC(=O)C(C)C)cc2)s1`, the EC50 was > 35 µM (inactive).
`CCOCCCNC(=O)c1ccc2c(c1)N=C(CC)c1cc(Br)ccc1S2`: the EC50 was > 35 µM (inactive).
On to `Cc1ccc(CCC(=O)Nc2ccc(Br)cc2)o1`, for which the EC50 is > 35 µM (inactive).
As for `Cc1ccc(S(=O)(=O)NCCN2CCOCC2)cc1`, the EC50 is > 35 µM (inactive).
Next, `O=C(NCCc1ccc(Cl)cc1)C1CCCN(S(=O)(=O)N2CCCCCC2)C1` (stereo unspecified): > 35 µM (inactive).
To `Cc1cccc(NC(=O)CCC(=O)N/N=C/c2ccco2)c1C` belongs > 35 µM (inactive).
Consider `CC(=O)Nc1ccc(NC(=O)C(C)OC(=O)/C=C/c2cn(-c3ccccc3)nc2-c2cccnc2)cc1` (stereo unspecified), for which the concentration giving a half-maximal response (EC50) was 17.1 µM.
For `COc1ccc(N2CCN(C3CCCN(Cc4cccc(C(C)=O)c4)C3)CC2)cc1` (stereo unspecified), the EC50 is > 35 µM (inactive).
As for `CCSc1nc(NCCN(C)C)c2c3c(sc2n1)COC(C)(CC)C3` (stereo unspecified), the EC50 was > 35 µM (inactive).
As to `O=C(NCc1cccs1)C(=O)NCC1OCCCN1S(=O)(=O)c1ccccc1` (stereo unspecified), the EC50 was > 35 µM (inactive).
Next, `CC(=O)N1CCN(C(=S)c2ccc([N+](=O)[O-])cc2)CC1`: > 35 µM (inactive); `CCNC(=O)/C(C#N)=C/c1c(N2CCN(C)CC2)nc2c(C)cccn2c1=O`: > 35 µM (inactive).
As for `Cc1cc(N2CCN(c3ccccc3)CC2)nc(-c2ccccc2)n1`, the EC50 was > 35 µM (inactive).
Next, `COc1ccc(C2(C(=O)NCCCN(C)C)CCOCC2)cc1`: > 35 µM (inactive).
As for `CCOc1ccccc1CNC(=O)Cn1nc(C)c2c(C)n(-c3ccc(C)cc3)nc2c1=O`, the EC50 was > 35 µM (inactive).
With `O=C(NCCCNc1ccc(C(F)(F)F)cc1[N+](=O)[O-])c1ccc(F)cc1`, the EC50 was > 35 µM (inactive).
On to `CC(NC(=O)c1cccc(OC2CCN(C3CCN(C)CC3)CC2)c1)c1ccccc1` (stereo unspecified), for which the EC50 is > 35 µM (inactive).
Regarding `O=C(/C=C/c1ccc(Cl)cc1)c1ccc([N+](=O)[O-])o1`, the EC50 is > 35 µM (inactive).
Next, `CCOc1cc(/C=N/N=C(\N)c2nonc2N)cc(Br)c1OCc1cccc2ccccc12`: 28 µM.
As to `Nc1cccc(Oc2cnccn2)c1`, the EC50 was > 35 µM (inactive).
Consider `CCN(CC(=O)Nc1c(F)cccc1F)C(=O)/C=C/c1ccc(C)cc1`, for which the EC50 was > 35 µM (inactive).

The record behind these values is PubChem BioAssay AID2765 (Broad Institute, 2010).
